Measured values from patent publication US20190134039A1, “ANTIVIRAL JAK INHIBITORS USEFUL IN TREATING OR PREVENTING RETROVIRAL AND OTHER VIRAL INFECTIONS” (EMORY UNIVERSITY, priority 2011, published 2019).

Experiments:
[1] = system: HIV-1 containing 4xAZT (D67N/K70R/T215Y/K219Q); test: microbe, parasite or virus in culture; assay type: cell-based
latent HIV-1 = test: Reactivation of latent HIV-1, J-Lat latency T cell system; assay type: cell-based; settings: concentrations found during steady-state or Cmax in vivo
HIV-1 containing L74V = test: microbe, parasite or virus in culture; assay type: cell-based
pSTAT5 = test: cells
HIV-1BaL = test: microbe, parasite or virus in culture; settings: Human immunodeficiency virus 1, Macrophage, in Homo sapiens
Method: Macrophages were isolated as follows: Monocytes were isolated from buffy coats of HIV-1 negative, HBV/HCV-negative donors with density gradient centrifugation coupled with enrichment for CD14+ monocytes with Rosette Sep antibody cocktail (Stem Cell Technologies, Vancouver, British Columbia). Cells were seeded at a concentration of 1.0×10^6 cells/well for 1 hr at 37° C. and 5% CO2 to confer plastic adherence prior to repeated washes with 1×PBS. Macrophages were maintained in medium containing 100 U/ml macrophage colony-stimulating factor (m-CSF, R&D Systems, Minneapolis, Minn.), supplemented with 20% fetal calf serum (Atlanta Biologicals, Lawrenceville, Ga.) and 1% penicillin/streptomyocin (Invitrogen, Carlsbad, Calif.) for 7 days (37° C., 5% CO2) prior to testing.
Macrophage infections: Macrophages were cultured as described above for 7 days. […] 4 hrs after infection, virus was removed and drug-containing medium was returned to the cultures. Supernatants were collected on day 7 post-infection and HIV-1 p24 was quantified via ELISA (Zeptometrix Corporation, Buffalo, N.Y.). EC50 analysis was performed using CalcuSyn software (BioSoft Corporation, Cambridge, UK).

CEM cells = test: cells; settings: Homo sapiens, CCRF-CEM, read-out: IC50 in CEM cells *MTT Assay
[2] = Human immunodeficiency virus 1, Lymphocyte

Compound: N#CC[C@H](C1CCCC1)n1cc(-c2ncnc3[nH]ccc23)cn1 [Jakafi, Ruxolitinib]
- FI50 (ratio of EC50 against mutant virus:EC50 against wild-type xxLAI) ([1]; 4xAZT (D67N/K70R/T215Y/K219Q)): 0.3
- FI90 (ratio of EC90 against mutant virus:EC90 against wild-type xxLAI) ([1]; 4xAZT (D67N/K70R/T215Y/K219Q)): 0.4
- EC50 [1, 2]: 0.09 ± 0.1 µM
- EC90 [1, 2]: 2.4 ± 2 µM
- inhibition of reactivation of latent HIV-1 (latent HIV-1): ≥ 50%
- EC50 (HIV-1 containing L74V; [2]): 0.1 ± 0.2 µM
- EC90 (HIV-1 containing L74V; [2]): 3.2 ± 2.6 µM
- FI50 (ratio of EC50 against mutant virus:EC50 against wild-type xxLAI) (HIV-1 containing L74V; L74V): 0.5
- FI90 (ratio of EC90 against mutant virus:EC90 against wild-type xxLAI) (HIV-1 containing L74V; L74V): 0.5
- EC50 (pSTAT5; read-out: EC50 pSTAT5): < 0.01 µM
- EC90 (pSTAT5; read-out: EC90 pSTAT5): < 0.01 µM
- EC50 (HIV-1BaL; read-out: Anti-HIV-1 EC50 in acutely infected MΦ): 0.3 ± 0.1 µM
- EC90 (HIV-1BaL; read-out: Anti-HIV-1 EC90 in acutely infected MΦ): 3.1 ± 1.8 µM
- IC50 (CEM cells): 11.8 ± 1.1 µM
